The text below walks through data of PMC8174488, “4-Arylthiosemicarbazide derivatives as a new class of tyrosinase inhibitors and anti-Toxoplasma gondii agents” (Journal of Enzyme Inhibition and Medicinal Chemistry, 2021).

Like-named read-outs stand apart in the source and are kept apart here.

One series deals with Toxoplasma gondii. To be noted: Toxoplasma gondii proliferation; cited from earlier work.
Series [1] relates to T. gondii RH strain. Briefly: Antiparasitic assay: T. gondii RH proliferation in Hs27 cells, [3H]uracil incorporation. Format: cell-based, Toxoplasma gondii.
Another series deals with L929 cells. Briefly: Cell viability assay (MTT, ISO 10993-5) on L929 mouse fibroblasts. Format: cell-based. To be noted: 24 h, concentration for 30% inhibition of cell proliferation. An excerpt: First, we evaluated the cytotoxic effects of 1b–9b, which is necessary prior to measuring anti-Toxoplasma and Tyr inhibition in order to exclude cytotoxic compounds. […] Cytotoxicity was estimated using mouse fibroblast (L929) cells line via MTT assay, according to the international standards ISO 10993–5:2009(E). […] Therefore, the obtained results were expressed as CC30, which was defined as the highest concentration of the compound that causes 30% damage of cells and was considered according to ISO as non-toxic.
The L929 mouse fibroblast (ATTC® CCL-1™, Manassas, VA) was routinely maintained in RPMI 1640 media (R8758, Sigma-Aldrich, Suffolk, UK), supplemented with 10% foetal bovine serum (Foetal Bovine Serum, ATCC® 30–2020™), 100 I.U./mL penicillin and 100 µg/mL streptomycin (Penicillin-Streptomycin Solution ATCC® 30–2300™). Cells were trypsinised (Trypsin-EDTA Solution, 1X ATCC® 30–2101™) twice a week and seeded at a density of 1 × 10^6 per T25 cell culture flask and incubated at 37 °C and 10% CO2 to achieve a confluent monolayer.
(§1) Cell viability assay was performed according to international standards (ISO 10993–5:2009(E)), using tetrazolium salt (MTT, Sigma-Aldrich) and mouse fibroblasts L929 cells. Culture medium RPMI 1640, without phenol red (Biowest, Nuaille, France) supplemented with 10% FBS, 2 mM L-glutamine (Sigma-Aldrich), 100 I.U./mL penicillin, 100 µg/mL streptomycin were used. Briefly, 1 × 10^4/well of L929 cells were placed in 96-well plates and incubated for 24 h at 37 °C and 10% CO2. Afterwards, the old culture medium was replaced with 100 µL of the compound, drug or inhibitor, diluted in culture medium, and the cells treated for 24 h. Additionally, cells were treated with 0.03–4.0% concentration of DMSO as the solvent (data not shown). Then, 50 µL of 1 mg/mL of MTT solution in RPMI 1640 without phenol red was added to each well and incubated for 2 h at 37 °C and 10% CO2. Next, cell culture medium was aspirated carefully and 150 µL of DMSO was added to each well, and the plates were gently mixed. Then, 25 µL 0.1 M glycine buffer (pH 10.5) (Sigma-Aldrich) was added. The optical density at 570 nm using a multi-mode microplate reader SpectraMax® i3 (Syngen, Taipei City, Taiwan) was recorded. The results were expressed as a percentage of viability compared to untreated cells. All experiments were performed in triplicate. Cytotoxicity assay using human fibroblast Hs27 cells was also performed as described above (included in Supplementary Material).

Series [2] concerns the target T1, Tyr from mushrooms (Agaricus bisporus, UniProt C7FF04). Briefly: Kinetic analysis of the inhibition of tyrosinase (Lineweaver-Burk, Dixon, [L-tyrosine]/V vs [I] plots). To be noted: for Ki: Dixon plots; for character of inhibition: Lineweaver–Burk plots; for IC50: plots of [L-tyrosine]/V vs [I]. Format: biochemical, mushroom. As for the experimental part:
Therefore, these compounds were subsequently subjected to detailed kinetic studies to evaluate inhibition parameters. […] Dixon plots (Figure 7) were used in evaluating the KI values, while the plots of [L-tyrosine]/V vs. [I] (Figure 8), were employed to determine IC50Tyr[50]. [I] represents the concentration of the inhibitor. Rates were monitored spectrophotometrically by detecting changes in absorbance at 492 nm.
Solutions containing 80 µL of 0.625, 1.25, or 2.5 mM L-tyrosine and 50 µL of 20, 100, or 200 µM inhibitor were added to a 96-well plate. Then, solution containing 70 µL of Tyr (10 U) was added and the initial rate of dopachrome formation was determined through detecting the increase in absorbance at the wavelength of 492 nm (Δ492/min). […] In order to determine the inhibition constants KI the Dixon plots were constructed, whereas the plots of [L-tyrosine]/V vs. inhibitor concentration [I] were used for IC50Tyr evaluation. The results from three experiments are shown.

Series [3] has as its system T. gondii RH strain. Also noted: method as in PMID 30744161, PMID 31022878. To be noted: 50% inhibition of T. gondii proliferation in vitro; reported previously, listed for comparison; cited from earlier work.
Series [4] deals with T. gondii tachyzoites RH-GFP strain. Briefly: Influence of compounds during Toxoplasma growth, assay A (compounds present only during penetration). It is filed as cell-based, Toxoplasma gondii. To be noted: compound at IC50Tg for 3 h during penetration, then 24 h free medium, Hs27 cells, vs untreated cells.
Series [5] concerns the target T1, Tyr from mushrooms. Kind of series: Inhibition of tyrosinase activity assay (screening at 25 µM). It is filed as biochemical, mushroom. To be noted: at 25 µM compound, L-tyrosine substrate, 10 U Tyr, 30 min. As to the method: In our study, we used Tyr from mushrooms (T3824, Sigma) for all experiments. All compound dilutions, L-tyrosine a Tyr substrate, and Tyr were prepared in 50 mM phosphate buffer (pH 6.5). […] 100% Tyr activity we used for the sample without addition compound/inhibitor. […] The average results from three experiments are shown.

For series [6], the system named is T. gondii tachyzoites RH-GFP strain. Kind of series: Influence of compounds during Toxoplasma growth, assay B (compounds present 24 h after penetration). Format: cell-based, Toxoplasma gondii. Particulars: 3 h infection without compound, then compound at IC50Tg for 24 h, Hs27 cells, vs untreated cells.
The next series deals with Hs27 cell line. Kind of series: Cytotoxicity assay (MTT) on human fibroblast Hs27 cells. It is filed as cell-based. As to the method:
as §1

T1 sequence (G1K3P4 entry or part of it): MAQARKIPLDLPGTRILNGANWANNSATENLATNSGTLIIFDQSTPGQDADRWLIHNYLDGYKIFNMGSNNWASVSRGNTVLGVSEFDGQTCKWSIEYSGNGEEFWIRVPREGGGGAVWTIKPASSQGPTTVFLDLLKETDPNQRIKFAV
T1 sequence (C7FF04 1-392): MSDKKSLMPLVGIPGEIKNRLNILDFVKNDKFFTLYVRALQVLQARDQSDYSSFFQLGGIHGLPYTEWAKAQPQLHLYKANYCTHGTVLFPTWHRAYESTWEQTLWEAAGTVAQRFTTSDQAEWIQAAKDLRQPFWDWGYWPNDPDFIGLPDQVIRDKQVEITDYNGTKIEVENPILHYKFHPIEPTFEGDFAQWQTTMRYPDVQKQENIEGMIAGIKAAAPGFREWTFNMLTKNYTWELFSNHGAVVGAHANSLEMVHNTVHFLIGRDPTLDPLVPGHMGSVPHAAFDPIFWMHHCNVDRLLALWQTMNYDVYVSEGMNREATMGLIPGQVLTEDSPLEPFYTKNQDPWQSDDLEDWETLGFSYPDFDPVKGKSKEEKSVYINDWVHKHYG

What is called IC50 is the midpoint of a concentration-inhibition curve. Regarding `Nc1ccc(S(=O)(=O)Nc2ncccn2)cc1` [sulfadiazine], the IC50 in the series on Toxoplasma gondii is roughly 8500 µM.

For the molecule `COc1cc(Cc2cnc(N)nc2N)cc(OC)c1OC` [Trimethoprim (TRI), Trimethoprim, reference compound], the IC50 was 50.9 µM with T. gondii RH strain [1] (Toxoplasma gondii, HS27) and 50.9 µM with Toxoplasma gondii. In addition, the “SR (selectivity ratio)” value in the series with T. gondii RH strain [1] (ratio of CC30 (L929) to IC50Tg) was 1.20. For the same molecule, the CC30 with L929 cells was determined as 61.25 µM.

As a reminder, the Ki is a measure of affinity in units of concentration, obtained from inhibition or displacement. Low values mean higher affinity, high ones lower affinity. For `Cc1nc[nH]c1C(=O)NNC(=S)Nc1ccc([N+](=O)[O-])cc1` [Compound 2a], at Tyr from mushrooms [2], the inhibition constant Ki was found to be 9.35 µM, the character of inhibition entry is listed as “mixed character of inhibition” and 38.3 µM corresponded to half-maximal inhibition (IC50). In the series on T. gondii RH strain [3], the IC50 was 67.5 µM. In addition, in series [4], the “number of infected cells (infection index)” value was “significant reduction” and the “number of tachyzoites per PV” value is listed as “significant reduction”. Also, the Tyrosinase inhibition on Tyr from mushrooms [5] worked out at 46.4 ± 3.6%. In [6], the “number of tachyzoites per PV” value is given as “significant reduction” and the “percentage of infected cells” value is given as “not observable”. The CC30 in the series with Hs27 cell line stood at 697.67 µM.

In the case of `Cc1nc[nH]c1C(=O)NNC(=S)Nc1cccc(I)c1` [Compound 6a], on Tyr from mushrooms [2], the affinity corresponds to a Ki of 12.4 µM, the character of inhibition entry is given as “mixed character of inhibition” and the IC50 amounted to 37.4 µM. The IC50 in the series with T. gondii RH strain [3] is 25.7 µM. In series [4], the “number of infected cells (infection index)” value is “significant reduction” and the “number of tachyzoites per PV” value is reported as “significant reduction”. This molecule also displayed a Tyrosinase inhibition on Tyr from mushrooms [5] of 48.9 ± 3.0%. Further, in series [6], the “number of tachyzoites per PV” value is recorded as “significant reduction” and the “percentage of infected cells” value is “not observable”. This molecule also displayed a CC30 in the series with Hs27 cell line of 209.45 µM.
